{"source": "patent US20240082269A1", "about": "“METHODS AND PRODUCTS INCLUDING SPECIFIC CANNABINOIDS” (priority 2022, published 2024)", "test": "Four Hempson Oil studies taken together (safety, overall THCV effect)", "format": "in vivo, human", "details": "daily use of 8 mg doses of THCV over 60-180 days", "from_the_text": "The following pre-clinical and clinical research has shown that small daily oral amounts of Hempson Oil®—a hemp-extract high in cannabidiol (CBD), tetrahydrocannabivarin (THCV), and cannabidivarin (CBDV)—have consistent effects of weight loss, reduction in abdominal girth, blood sugar (HgbA1c) and blood lipid ratios. These comparative examples are shown merely for the effect the active ingredients may have upon metabolic disorders and weight loss.\nThe Hempson Oil Studies: from 2019 until April 2021, several independent high quality human trials were completed using an oral Hempson® oil in a micellized tincture or non-micellized oil in gel caps. All of the studies were NIH-supported. All studies were double-blind, placebo-controlled, multisite, and randomized effectiveness studies of a hemp extract, known as Hempson® oil that is high in CBD, THCV, and CBDV. The studies used either type II diabetics, obese or healthy adults. The studies done with micellized oil tincture used lower doses with micellized Hempson® oil because of increased the absorption and bioavailability of the cannabinoids.\nIn each study, subjects were randomly assigned to either the Hempson Oil® group (100 subjects) or the control group (50 subjects). Each subject signed a study consent form. Subjects were instructed to orally ingest this study product once daily. All subjects were instructed not to change their eating, drinking, or exercise habits for the duration of this study.\nAll of the study results reported below were statistically significant (p<0.05) compared to placebo results.", "data": [{"smiles": "CCCc1cc(O)c2c(c1)OC(C)(C)[C@@H]1CCC(C)=C[C@@H]21", "note": "[THCV, tetrahydrocannabivarin]", "values": [{"measurement": "A1C blood levels (diabetic measure)", "value": "decrease in A1C blood levels"}, {"measurement": "Abdominal girth", "value": "decrease of abdominal girth"}, {"measurement": "Weight", "value": "statistically significant weight loss"}]}]}
